Measured values: US20210371899A1, “METHOD AND KIT FOR […], AND PLASMID, BACULOVIRUS, CELL AND METHOD OF PREPARING THE SAME FOR PESTICIDE DETECTIONS” (priority 2018, published 2021)
Where two headings read alike, the source gives them in different places.

Experiments:
[1] = target: T1, AChE-FL (full-length AChE Y408F displayed on Hi5 cells) (Drosophila melanogaster, UniProt P07140, R99G/Y408F); test: Inhibition of cell-surface displayed AChE-FL (Ellman's method, ATCh/DTNB, 412 nm); type: biochemical
T1 construct: honeybee mellitin signal peptide (HM) (N); expressed in transfected cells; host or cells: Trichoplusia ni High Five (Hi5) cells infected with recombinant baculovirus vAChE-FL, lyophilised in the plate
Protocol: (§1) Hi5 cells were infected with AChE-FL-bac (FL), AChE-6MC-bac (6MC) or WT-bac (WT) respectively, for 3 days. After the removal of media, the cells were subjected to a 5-hour lyophilization in the 96-well plates. Two OP and two CB insecticide compounds were serial-diluted and added to the infected cell samples, as well as a 100 mU/mL AChE (ST, Abcam) in 96-well plates and the commercialized AChE (Sichen) in cuvette for a further comparison. AChE activities were analyzed for all these sample in order to determine the sensitivities of these AChE to different insecticides. DMSO with different concentrations in DPBS were added to determine the background effects. Pesticides tested are: (a) paraoxon ethyl, (b) malaoxon, (c) carbofuran (d) carbaryl.
(§2) AChE activity was determined by Ellman's method. For each 96-well, 50 μl of 3 mM ATCh and 50 μl of 3 mM Ellman's reagent DTNB solution was added. After 10 minutes of incubation at room temperature, average absorbance at 412 nm was determined. […] The diluted solutions were then added individually into 96-well microplates with Hi5 cells infected by the seven recombinant viruses (vDmAChE, vHsAChE, vRnAChE, vAmAChE, vSfAChE, DamAChE, and vBdAChE). After incubation for 10 minutes, substrate ATCh and DTNB solution were added to the reaction mixture. After 10 minutes of incubation at room temperature, residual activity was determined with a microplate reader at 412 nm.
(§3) The acetylcholinesterase stock solution was diluted into 50 units/mL in assay buffer at ratio 1:50 to generate 1000 mU/mL acetylcholinesterase standard solution. Then, the 1000 mU/mL acetylcholinesterase standard solution was further diluted into 300, 100, 30, 10, 3, 1 and 0 mU/mL for determining the average absorbance of each standard. The reading of each standard was plotted as a function of the amount of acetylcholinesterase to establish a standard curve, and the corresponding amount of AChE in each test samples was calculated by the derived linear equation. […]
(§4) The remaining activity of AChE is evaluated by the following equation: […]
(§5) In which, ΔA0 indicates the change of absorbance of the positive control, and ΔAS indicates the change of absorbance of the applied pesticide incubated solution.
(§6) As for a comparison, the test results using the most common AChE insecticide diagnostic kit in Taiwan sold by Sichen Inc. were also included, and the IC50 for all of the test samples were also calculated (Table 1). For Sichen, since they acquire the AChE from fly, also they have to use cuvette (1 mL) for measurement, thus high quantity of AChE should be used. […] 96-well plate was applied, which requires only 100 μL solution for detection, and easily to handle, and can be read by bare eye for the detection of residue pesticides.

[2] = target: T2, AChE-6MC (truncated AChE Y408F fused with TM and CTD of baculovirus GP64, displayed on Hi5 cells) (Drosophila melanogaster, UniProt P07140, R99G/Y408F); test: Inhibition of cell-surface displayed AChE-6MC (Ellman's method, ATCh/DTNB, 412 nm); type: biochemical
T2 construct: honeybee mellitin signal peptide (HM) (N); expressed in transfected cells; host or cells: Trichoplusia ni High Five (Hi5) cells infected with recombinant baculovirus vAChE-6MC, lyophilised in the plate
Protocol: as §1, §2, §3, §4, §5, §6

AChE (Abcam) = AChE (Abcam) (UniProt O42275); test: Inhibition of purified standard AChE (Abcam); type: biochemical
Protocol: AChE activity was determined by Ellman's method. For each 96-well, 50 μl of 3 mM ATCh and 50 μl of 3 mM Ellman's reagent DTNB solution was added. After 10 minutes of incubation at room temperature, average absorbance at 412 nm was determined. […] The diluted solutions were then added individually into 96-well microplates with Hi5 cells infected by the seven recombinant viruses (vDmAChE, vHsAChE, vRnAChE, vAmAChE, vSfAChE, DamAChE, and vBdAChE). […] After 10 minutes of incubation at room temperature, residual activity was determined with a microplate reader at 412 nm.

[3] = target: commercialized AChE (Sichen) (Musca domestica, UniProt Q7YWJ9); test: Inhibition of commercial AChE kit (Sichen), cuvette; type: biochemical, fly
Protocol: as §1
Acetylcholinesterase Assay Kit (standard AChE) was purchased from Abcam. Rapid Bioassay of Pesticides Residues Reagent Kit (commercial AChE) was purchased from Sichen.
The acetylcholinesterase stock solution was diluted into 50 units/mL in assay buffer at ratio 1:50 to generate 1000 mU/mL acetylcholinesterase standard solution. Then, the 1000 mU/mL acetylcholinesterase standard solution was further diluted into 300, 100, 30, 10, 3, 1 and 0 mU/mL for determining the average absorbance of each standard. The reading of each standard was plotted as a function of the amount of acetylcholinesterase to establish a standard curve, and the corresponding amount of AChE in each test samples was calculated by the derived linear equation. To calculate the inhibition of AChEs activity (%), vCont-Bac infected cells (without expression of AChE on the surface) served as the negative control, whereas Abcam purified protein, Sichen commercial protein, vAChE-FL and vAChE-6MC infected cells without pesticide incubation served as the positive control. The activity of the positive control was considered 100%.
The remaining activity of AChE is evaluated by the following equation:
Inhibition of AChEs activity (%)(ΔA0−ΔAS)/ΔA0)×100
as §5
As for a comparison, the test results using the most common AChE insecticide diagnostic kit in Taiwan sold by Sichen Inc. were also included, and the IC50 for all of the test samples were also calculated (Table 1). For Sichen, since they acquire the AChE from fly, also they have to use cuvette (1 mL) for measurement, thus high quantity of AChE should be used. […] In the present application, however, there are no need for fly rearing and no need for AChE purification. 96-well plate was applied, which requires only 100 μL solution for detection, and easily to handle, and can be read by bare eye for the detection of residue pesticides.

[4] = read-out: IC50 of OP and CB towards AChEs, Abcam; 100 mU/mL purified AChE standard, 96-well plate
[5] = Hi5 cells infected with vAChE-FL, 3 days, lyophilized 5 h, 96-well plate, read-out: IC50 of OP and CB towards AChEs, AChE-FL
[6] = Hi5 cells infected with vAChE-6MC, 3 days, lyophilized 5 h, 96-well plate, read-out: IC50 of OP and CB towards AChEs, AChE-6MC
[7] = commercialized AChE kit, cuvette (1 mL), read-out: IC50 of OP and CB towards AChEs, Sichen

Row | Structure (SMILES) | IC50 [1] [nM] | IC50 [2] [nM] | IC50 (AChE (Abcam); [4]) [nM] | IC50 [3] [nM] | IC50 [1, 5] [nM] | IC50 [2, 6] [nM] | IC50 (AChE (Abcam); 100 mU/mL purified AChE standard, 96-well plate; read-out: IC50 of OP and CB towards AChEs, Abcam) [nM] | IC50 [3, 7] [nM]
1 | CNC(=O)Oc1cccc2ccccc12 [Carbaryl, carbaryl] | 6800 | 650 | 6500 | 5900 |  |  |  | 
2 | CNC(=O)Oc1cccc2c1OC(C)(C)C2 [Carbofuran, carbofuran] |  |  |  |  | 48000 | 4500 | 540 | 2800
3 | CCOC(=O)CC(SP(=O)(OC)OC)C(=O)OCC (stereo not drawn) [Malaoxon, malaoxon] | 560 | 62 | 820 | 950 |  |  |  | 
4 | CCOP(=O)(OCC)Oc1ccc([N+](=O)[O-])cc1 [Paraoxon ethyl, paraoxon ethyl] |  |  |  |  | 490 | 55 |  | 2300
